pEC50: −log10 of the molar value.
What was measured:
[1] = Fraction unbound in Beagle dog plasma at 1 mg/kg, iv or 2 mg/kg, po administered as single dose; assay type: ADME, organism-based, Canis lupus familiaris
Rattus norvegicus [2] = assay: Antidiabetic activity in po dosed Goto Kakizaki rats assessed as plasma concentration required for reduction in blood glucose excursion at MED pretreated for 1 hr followed by dextrose challenge measured 3 hrs post dose by OGTT; assay type: functional, organism-based
[3] = Fraction unbound in rhesus monkey plasma at 1 mg/kg, iv or 2 mg/kg, po administered as single dose; assay type: ADME, organism-based, Macaca mulatta
[4] = molecular target: T1, Free fatty acid receptor 1 (Homo sapiens, UniProt O14842); assay: Agonist activity at recombinant human GPR40 expressed in HEK293 cells assessed as increase in IP1 accumulation measured after 60 mins in presence of 100% human serum by HTRF assay relative to AM-1638; assay type: functional, cell-based
[5] = Intrinsic clearance in rhesus monkey hepatocytes; assay type: ADME, cell-based, Macaca mulatta, Hepatocyte; details: read-out: CLH
[6] = molecular target: Free fatty acid receptor 1 (Rattus norvegicus) (UniProt Q8K3T4); assay: Agonist activity at recombinant rat GPR40 expressed in CHOK1 cells assessed as increase in IP1 accumulation measured after 60 mins by HTRF assay relative to AM-1638; assay type: functional, cell-based
[7] = Effective half life in rhesus monkey at 1 mg/kg, iv or 2 mg/kg, po administered as single dose; assay type: ADME, organism-based, Macaca mulatta; details: in vivo, read-out: t1/2eff (converted)
[8] = Effective half life in Wistar-Han rat at 1 mg/kg, iv or 2 mg/kg, po administered as single dose; assay type: ADME, organism-based; details: in vivo, read-out: t1/2eff (converted)
[9] = Volume of distribution at steady state in Wistar-Han rat at 1 mg/kg, iv or 2 mg/kg, po administered as single dose; assay type: ADME, organism-based; details: in vivo, read-out: Vdss
[10] = Drug metabolism in human hepatocytes assessed as phenol metabolite formation; assay type: ADME, cell-based, Hepatocyte
Rattus norvegicus [11] = assay: Antidiabetic activity in Goto Kakizaki rats assessed as inhibition of blood glucose AUC at 30 mg/kg, po pretreated for 1 hr followed by dextrose challenge measured after 20 to 60 mins by OGTT method relative to control; assay type: functional
[12] = Clearance in Wistar-Han rat at 1 mg/kg, iv or 2 mg/kg, po administered as single dose; assay type: ADME, organism-based; details: in vivo
[13] = Effective half life in Beagle dog at 1 mg/kg, iv or 2 mg/kg, po administered as single dose; assay type: ADME, organism-based, Canis lupus familiaris; details: in vivo, read-out: t1/2eff (converted)
[14] = Tmax in Wistar rat at 750 mg/kg administered once daily for 4 days; assay type: ADME, organism-based; details: in vivo
Rattus norvegicus [15] = assay: Toxicity in Wistar rat assessed as increase in liver weight at 200 to 750 mg/kg administered once daily for 4 days; assay type: organism-based; details: in vivo, 96 h
[16] = AUC (0 to 24 hrs) in Wistar rat at 750 mg/kg administered once daily for 4 days; assay type: ADME, organism-based; parameters: dose 750 mg/kg, time < 24 hr; details: in vivo
Rattus norvegicus [17] = assay: Toxicity in Wistar rat assessed as mortality at 200 to 750 mg/kg administered once daily for 4 days; assay type: organism-based; details: in vivo, 96 h
[18] = molecular target: T1, Free fatty acid receptor 1; assay: Agonist activity at recombinant human GPR40 expressed in HEK293 cells assessed as increase in IP1 accumulation measured after 60 mins in presence of 100% human serum by HTRF assay; assay type: functional, cell-based

T1 sequence (O14842 whole entry): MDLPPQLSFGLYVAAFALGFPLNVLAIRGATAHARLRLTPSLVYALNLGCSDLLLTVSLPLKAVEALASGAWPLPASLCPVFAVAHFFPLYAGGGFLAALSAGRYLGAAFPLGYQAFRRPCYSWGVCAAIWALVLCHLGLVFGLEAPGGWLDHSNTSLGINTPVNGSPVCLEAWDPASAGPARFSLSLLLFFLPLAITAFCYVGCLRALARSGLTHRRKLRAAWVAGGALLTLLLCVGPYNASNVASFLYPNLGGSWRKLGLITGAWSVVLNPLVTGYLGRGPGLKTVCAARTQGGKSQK
Chain of Free fatty acid receptor 1 (Rattus norvegicus) (Q8K3T4 whole entry): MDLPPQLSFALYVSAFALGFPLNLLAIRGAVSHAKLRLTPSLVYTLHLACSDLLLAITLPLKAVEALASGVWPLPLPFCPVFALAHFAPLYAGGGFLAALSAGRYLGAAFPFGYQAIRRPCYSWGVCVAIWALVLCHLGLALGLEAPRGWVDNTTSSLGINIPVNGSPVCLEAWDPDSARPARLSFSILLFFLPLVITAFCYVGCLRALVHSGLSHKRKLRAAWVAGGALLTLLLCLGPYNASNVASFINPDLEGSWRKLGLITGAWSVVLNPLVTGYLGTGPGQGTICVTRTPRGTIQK

For `COc1cc(-c2ccc([C@@H]3CCc4ccc([C@H](C5CC5)[C@H](C)C(=O)[O-])cc4O3)c(F)c2)ccn1.[Na+]`, the fraction unbound [1] was 0.015, the Cp (Rattus norvegicus [2]) was 4.9 µM and the fraction unbound [3] was 0.00071. For the same compound, the max activation [4] was over 179%, the CLint scaled [5] was 102 mL/min/kg and the max activation [6] was over 370%. For the same compound, the half-life [7] was 10 h, the half-life [8] was 3.7 h and the Vd [9] was 0.48 L/kg. The Drug metabolism [10] was “Metabolite_Notdetected”, the inhibition in vivo at 30 mg/kg (Rattus norvegicus [11]) was 114% and the clearance [12] was 2.8 mL/min/kg. The half-life [13] was 6.9 h, the Tmax [14] was 1 to 2 h and the Activity (Rattus norvegicus [15]) was “Non-Toxic”. The AUC at 24 h [16] was 7350 µM·h, the Activity (Rattus norvegicus [17]) was “Non-Toxic” and the pEC50 [18] was 7.46.
